The NIST ThermoML archive (doi:10.1021/acs.jced.8b00132)
Where “and” joins values, the source holds several entries; their conditions need not be identical. Identical values can stand only once.

Conditions: transient hot wire

O=C(C(F)(F)C(F)(F)F)C(F)(C(F)(F)F)C(F)(F)F [dodecafluoro-2-methylpentan-3-one]
Conditions | thermal conductivity
301.59 K, 15869 kPa, Liquid | 0.06313 W/m/K
301.6 K, 48023 kPa, Liquid | 0.07341 W/m/K
301.6 K, 48035 kPa, Liquid | 0.07339 W/m/K
301.61 K, 9935 kPa, Liquid | 0.06132 W/m/K
301.61 K, 9939 kPa, Liquid | 0.0613 W/m/K
301.63 K, 185 kPa, Liquid | 0.05695 W/m/K
301.63 K, 186 kPa, Liquid | 0.05695 W/m/K
301.65 K, 38555 kPa, Liquid | 0.07081 W/m/K
301.65 K, 38556 kPa, Liquid | 0.07081 W/m/K
301.66 K, 4510 kPa, Liquid | 0.05903 W/m/K
301.67 K, 181 kPa, Liquid | 0.05696 W/m/K and 0.05695 W/m/K
301.67 K, 4513 kPa, Liquid | 0.05926 W/m/K
301.68 K, 68591 kPa, Liquid | 0.07706 W/m/K
301.68 K, 68604 kPa, Liquid | 0.07747 W/m/K
301.69 K, 29956 kPa, Liquid | 0.06826 W/m/K
301.69 K, 29958 kPa, Liquid | 0.06828 W/m/K
301.69 K, 68130 kPa, Liquid | 0.07843 W/m/K
301.7 K, 58476 kPa, Liquid | 0.07534 W/m/K
301.7 K, 68201 kPa, Liquid | 0.07832 W/m/K
301.71 K, 22368 kPa, Liquid | 0.06584 W/m/K and 0.06583 W/m/K
301.71 K, 48170 kPa, Liquid | 0.07234 W/m/K
301.71 K, 58480 kPa, Liquid | 0.07563 W/m/K
301.72 K, 15988 kPa, Liquid | 0.06294 W/m/K
301.72 K, 15989 kPa, Liquid | 0.0629 W/m/K
301.72 K, 48184 kPa, Liquid | 0.07274 W/m/K
301.73 K, 38646 kPa, Liquid | 0.06956 W/m/K
301.73 K, 38651 kPa, Liquid | 0.0696 W/m/K
301.75 K, 9736 kPa, Liquid | 0.06053 W/m/K
301.75 K, 59377 kPa, Liquid | 0.07624 W/m/K
301.75 K, 59380 kPa, Liquid | 0.07624 W/m/K
301.75 K, 68800 kPa, Liquid | 0.07711 W/m/K
301.76 K, 9735 kPa, Liquid | 0.06062 W/m/K
301.76 K, 15639 kPa, Liquid | 0.06344 W/m/K
301.76 K, 29978 kPa, Liquid | 0.06731 W/m/K
301.76 K, 68808 kPa, Liquid | 0.07639 W/m/K
301.77 K, 15644 kPa, Liquid | 0.06346 W/m/K
301.78 K, 121 kPa, Liquid | 0.05702 W/m/K and 0.05701 W/m/K
301.79 K, 4434 kPa, Liquid | 0.05801 W/m/K
301.79 K, 4440 kPa, Liquid | 0.05822 W/m/K
301.79 K, 22438 kPa, Liquid | 0.06507 W/m/K
301.79 K, 22452 kPa, Liquid | 0.06502 W/m/K
301.82 K, 102 kPa, Liquid | 0.05674 W/m/K
301.82 K, 48012 kPa, Liquid | 0.07336 W/m/K
301.82 K, 48021 kPa, Liquid | 0.07338 W/m/K
301.83 K, 95 kPa, Liquid | 0.05685 W/m/K
301.85 K, 9941 kPa, Liquid | 0.06128 W/m/K
301.85 K, 9948 kPa, Liquid | 0.06126 W/m/K
301.87 K, 38549 kPa, Liquid | 0.07078 W/m/K
301.87 K, 38555 kPa, Liquid | 0.07047 W/m/K
301.88 K, 34 kPa, Gas | 0.01211 W/m/K
301.88 K, 35 kPa, Gas | 0.01203 W/m/K
301.9 K, 185 kPa, Liquid | 0.05689 W/m/K
301.91 K, 185 kPa, Liquid | 0.05664 W/m/K
301.91 K, 4509 kPa, Liquid | 0.059 W/m/K
301.91 K, 29959 kPa, Liquid | 0.06823 W/m/K
301.91 K, 67990 kPa, Liquid | 0.07824 W/m/K
301.91 K, 68063 kPa, Liquid | 0.07829 W/m/K
301.92 K, 29958 kPa, Liquid | 0.06824 W/m/K
301.93 K, 181 kPa, Liquid | 0.05689 W/m/K and 0.05687 W/m/K
301.94 K, 4507 kPa, Liquid | 0.05898 W/m/K
301.95 K, 22372 kPa, Liquid | 0.06576 W/m/K
301.95 K, 22377 kPa, Liquid | 0.06549 W/m/K
301.97 K, 59371 kPa, Liquid | 0.07623 W/m/K
301.97 K, 59377 kPa, Liquid | 0.07622 W/m/K
302.01 K, 15644 kPa, Liquid | 0.06317 W/m/K
302.01 K, 15646 kPa, Liquid | 0.06342 W/m/K
302.03 K, 121 kPa, Liquid | 0.05696 W/m/K
302.04 K, 15871 kPa, Liquid | 0.0631 W/m/K
302.04 K, 15874 kPa, Liquid | 0.0632 W/m/K
302.04 K, 48005 kPa, Liquid | 0.07334 W/m/K
302.05 K, 48000 kPa, Liquid | 0.07334 W/m/K
302.09 K, 9944 kPa, Liquid | 0.06121 W/m/K
302.09 K, 68569 kPa, Liquid | 0.07801 W/m/K
302.09 K, 68583 kPa, Liquid | 0.07807 W/m/K
302.1 K, 9951 kPa, Liquid | 0.06119 W/m/K
302.1 K, 38544 kPa, Liquid | 0.07073 W/m/K
302.11 K, 38546 kPa, Liquid | 0.07074 W/m/K
302.13 K, 58450 kPa, Liquid | 0.07511 W/m/K
302.13 K, 58453 kPa, Liquid | 0.07504 W/m/K
302.15 K, 15982 kPa, Liquid | 0.0631 W/m/K
302.15 K, 29954 kPa, Liquid | 0.06819 W/m/K and 0.0682 W/m/K
302.15 K, 48164 kPa, Liquid | 0.07319 W/m/K
302.16 K, 15975 kPa, Liquid | 0.06301 W/m/K
302.16 K, 48161 kPa, Liquid | 0.07327 W/m/K
